Laboratory results reported in ChEMBL document CHEMBL1201862, “PubChem BioAssay data set” (2004).
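Five compound concentrations were applied to cells in 96-well plates for 48 hours; endpoints were derived by simple linear interpolation of the resulting dose-response curve. GI50 marks 50% less growth.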 The source made the active and inactive calls. Cut-off read from the data, not from the text of the source: active = GI50 up to about 1.1 µM and inactive = higher. Non-standard residues stand in square brackets, D forms with d. Residues, ends and D or L forms follow the SMILES beside them. ξ: configuration not given here. *: point of attachment. ξHyp = O=C(O)C1CC(O)CN1; Cbz = O=C(OCc1ccccc1)*

What was measured:
Assay in all cases: NCI tumour cell line growth inhibition, 48 h
[1] = tested on: MDA-N
[2] = tested on: MDA-MB-435
[3] = tested on: PC-3
[4] = tested on: MDA-MB-231
[5] = tested on: KM-20L2
[6] = tested on: DMS-273
[7] = tested on: XF498
[8] = tested on: LXFL 529
[9] = tested on: RXF 631

SMILES | GI50 [1] | GI50 [2] | GI50 [3] | GI50 [4] | GI50 [5] | GI50 [6] | GI50 [7] | GI50 [8] | GI50 [9]
CC(=O)Nc1oc(C)nc1C#N | > 100 µM (inactive) | > 100 µM (inactive) | > 100 µM (inactive) | > 100 µM (inactive) |  |  |  |  | 
CC1=CC2c3cccc4[nH]cc(c34)CC2N(C)C1 (stereo not given) |  |  |  |  | > 76.2 µM (inactive) | > 100 µM (inactive) | 9.75 µM (inactive) |  | 
CCCC[C@H]1[C@@H](OCOc2ccccc2)COC(=O)N1[C@H](C)c1ccccc1 | 11.9 µM (inactive) | 13.3 µM (inactive) | 6.1 µM (inactive) | 13.3 µM (inactive) |  |  |  |  | 
N#CCCC1(CCC#N)CCCCCCC(CCC#N)(CCC#N)C(O)C1O (stereo not given) | > 100 µM (inactive) | > 100 µM (inactive) | > 100 µM (inactive) |  |  |  |  |  | 
CCOC(=O)CCc1c(C)c2c(OC(C)=O)cc(OC(C)=O)cc2oc1=O |  |  |  |  | > 100 µM (inactive) | 35 µM (inactive) |  | 37.4 µM (inactive) | 
CCOC(=O)C(O)(NC(=O)c1ccc(F)cc1)C(F)(F)F (stereo not given) | > 100 µM (inactive) | > 100 µM (inactive) | > 100 µM (inactive) | 59.8 µM (inactive) |  |  |  |  | 
CC(/C=N/N=C(N)N)=N\N=C(N)N | 15.2 µM (inactive) | 12.9 µM (inactive) | 232 µM (inactive) | 22.6 µM (inactive) | 12.8 µM (inactive) | 31.6 µM (inactive) | 2.96 µM (inactive) | 61.9 µM (inactive) | 
C/N=C1\S/C(=N\c2ccc(N(C)C)cc2)N1C |  |  |  |  |  | 54.1 µM (inactive) |  | 40.5 µM (inactive) | 
CCN(CC)CCOC(=O)c1ccc(N)cc1.CCOC(=O)Nc1ccc(S(=O)(=O)OC)cc1.CCOC(=O)Nc1ccc(S(=O)(=O)OC)cc1.Nc1ccc(C(=O)O)c(O)c1 |  |  |  |  | > 100 µM (inactive) |  |  | > 100 µM (inactive) | > 100 µM (inactive)
O=C(O)C1CCCCN1C(=O)c1ccccc1 (stereo not given) |  |  |  |  | > 100 µM (inactive) | > 100 µM (inactive) | > 100 µM (inactive) | > 100 µM (inactive) | > 100 µM (inactive)
CC1=NN(C(=O)c2cc(Cl)cc([N+](=O)[O-])c2)C(=O)C1/N=N/c1ccccc1C(=O)O (stereo not given) |  |  |  |  |  | > 100 µM (inactive) |  | > 100 µM (inactive) | > 100 µM (inactive)
COc1cc(C(C)O)c(S(=O)(=O)CC(C)O)nn1 (stereo not given) | > 100 µM (inactive) | > 100 µM (inactive) |  |  |  |  |  |  | 
COC1C(O)CC(OC2CC(Oc3cc4cc5c(c(O)c4c(O)c3C)C(=O)[C@@H](OC3CC(OC4CC(OC6CC(C)(O)C(OC(C)=O)C(C)O6)C(O)C(C)O4)C(O)C(C)O3)[C@H]([C@H](OC)C(=O)[C@@H](O)[C@@H](C)O)C5)OC(C)C2OC(C)=O)OC1C (stereo not given in full) [CHROMOMYCIN] | 3.15e-05 µM (active) | 2.44e-05 µM (active) | 3.57e-05 µM (active) | 3e-05 µM (active) | 0.00397 µM (active) |  | 0.00315 µM (active) |  | 
Nc1ncc2c(n1)-c1ccccc1OC2 |  |  |  |  | > 100 µM (inactive) | > 80.5 µM (inactive) | > 100 µM (inactive) |  | 
NC(=O)CNC(=O)C1CC(O)CN1C(=O)OCc1ccccc1 (stereo not given) (Cbz-[ξHyp]-Gly-NH2) | > 100 µM (inactive) | > 100 µM (inactive) | > 100 µM (inactive) | > 100 µM (inactive) |  |  |  |  | 
COc1cccc(N2C(=O)C3c4[nH]c5ccc(C)cc5c4C4CCC(C(C)(C)C)CC4C3C2=O)c1 (stereo not given) | > 10 µM (inactive) | > 10 µM (inactive) | 4.43 µM (inactive) | 5.48 µM (inactive) |  |  |  |  | 
Cc1ccccc1OCC(COC(=O)Nc1ccccc1)OC(=O)Nc1ccccc1 (stereo not given) |  |  |  |  | 52.2 µM (inactive) | 32.1 µM (inactive) |  | 45.9 µM (inactive) | 9.93 µM (inactive)
Cc1[nH]c(=O)[nH]c(=O)c1C(=O)N(CCO)Cc1ccccc1 | > 100 µM (inactive) | > 100 µM (inactive) | 24.6 µM (inactive) | > 100 µM (inactive) |  |  |  |  | 
CC1=C[C@]2(CC(C)C3C(CC4(C)C5CCC6C(C)(C)C(=O)CC[C@@]67C[C@@]57CC[C@]34C)O2)OC1=O (stereo not given in full) |  |  |  |  |  | 3.95 µM (inactive) | 13.9 µM (inactive) | 7.52 µM (inactive) | 3.54 µM (inactive)
CCc1cc2c(cc1CCCC(=O)O)CC1(Cc3ccc(C(=O)O)cc3C1)C2 (stereo not given) | > 100 µM (inactive) | > 100 µM (inactive) | > 100 µM (inactive) | > 100 µM (inactive) |  |  |  |  | 
COc1cc([C@@H]2c3cc4c(c(O[C@@H]5O[C@H]6CO[C@@H](C)O[C@H]6[C@H](O)[C@@H]5O)c3C[C@H]3COC(=O)[C@@H]32)OCO4)cc(OC)c1O |  |  |  |  | 34.9 µM (inactive) | 4.63 µM (inactive) | 12.6 µM (inactive) |  | 
